Patent US20230414583A1, “LYSERGIC ACID DERIVATIVES WITH MODIFIED LSD-LIKE ACTION” (Mind Medicine, Inc., priority 2022, published 2023)

Tests used:
[1] = 5R,8S epimer; cited from earlier work
[2] = Chemical stability under basic and acidic conditions (HPLC MS); type: physicochemical
Experimental: General preparation and equipment information: NMR was performed on a Bruker NMR (^1H: 300 MHz and ^19F: 282 MHz) at ambient temperature. Reaction controls were performed by silica gel TLC (F254; UV detection) and HPLC UV & MS (Agilent 1100, UV at 210 nm and 313 nm, Waters SQD, ESI+ mode) under basic as well as acidic conditions (solvents: A: either 0.02% NH4OH in water or 0.05% TFA in water, B: acetonitrile, gradients from 5% to 95% B, reversed phase C18 HPLC column). All reactions, workups, drying steps, and storing were performed under exclusion of daylight and of electric light such as neon lighting or light bulbs containing wavelengths of the blue and/or UV spectrum. Working was performed in either light-excluding lab ware or under orange to red light (UV free LED). This helps to prevent decompositions of the compounds. Further on, reactions und some purifications can be performed under protecting gas such as Nitrogen or Argon to further protect the compounds from decompositions. Purifications were performed by using silica gel column chromatography and organic solvents such as mixtures of an alcohol (MeOH or EtOH) and dichloromethane, and in some cases, 0.1% to 1% of NH4OH 25% or 0.1% to 1% NEt3 was added. In a similar way, preparative TLC (silica gel) using the aforementioned solvents was applied as well. Working safety: a suitable personal protecting ware common to lab works and fume hoods with a movable glass window were used. Possible contaminations on e.g., gloves or surfaces can quickly be detected by having a long-wave UV lamp (e.g., 366 nm) at hands, preventing further distribution of active materials. Typically, compounds bearing an intact lysergic acid amide substructure, show a strong blueish fluorescence even in trace amounts. Quick deactivation of the potential central effects of these compounds can be performed by using, e.g., a mixture of bleach and diluted alcohol.
9,10-Didehydro-N-ethenyl-N-ethyl-6-methylergoline-8R-carboxamide (TRALA-12), 21. […]

[3] = humans; psilocin: unconjugated, average; cited from earlier work
[4] = Microsomal assays: stability in pooled human liver microsomes, LC-MS/MS; type: in vitro ADME; conditions: 10 nM; for microsomal metabolism compared with LSD: incubations over 4 hours
Description: Given its fast metabolism, it is likely not active orally but is a candidate for intravenous administration in particular as an infusion and expected to then produce short-lasting or also maintained effects that can rapidly be terminated upon stopping the infusion. […] However, it is important to note that in addition to the metabolic profile, other factors such as 5-HT2A receptor activity are important to consider when choosing promising drug candidates for therapeutic applications. In addition, in vivo experiments are necessary further assessing the clinical pharmacokinetics of these substances.
Microsomal assays: The objective of this experiment was the investigation of the microsomal stability of 10 novel lysergamides (FIGS. 13A-13J) in order to make predictions about whether any of the derivatives may be clinically faster metabolized than lysergic acid diethylamide (LSD). The test substances were incubated with human liver microsomes for 4 hours and the metabolic degradation was then measured by liquid chromatography-tandem mass spectrometry (LC-MS/MS). In brief, LSD and the derivatives (10 nM) were incubated in the presence of pooled human liver microsomes for 4 hours. The microsomal reaction mixture contained 464.5 μL phosphate-buffered saline, 25 μL nicotinamide adenine dinucleotide phosphate (NADPH) solution A (1:20 dilution, #451220, lot: 0344003; Corning Life Sciences B.V) and 5 μL Solution B (1:100 dilution, #451200, lot: 0342002; Corning Life Sciences B.V), 5 μL liver microsomes (150 donors, 20 mg/mL, #452117, lot: 38296; Corning Life Sciences B.V., Amsterdam, The Netherlands), and 0.5 μL test drugs (10 μM). Samples (50 μL) were taken 2 minutes prior to microsomal incubation (t0) and 0.5, 1, 2, 3, and 4 hours after initiation of the microsomal reaction. A total of five assays were performed per substance. The amount of the test substances (peak area) exposed to human liver microsomes for 4 hours was compared relative to a concentration of 10 nM (t0, 100% peak area). Linear regression slopes were plotted to compare the degradation of the derivatives and LSD. None of the TRALA derivatives were metabolized to LSD (data not shown).

[5] = system: 5-HT2A; conditions: cited from earlier work
[6] = system: LSD-trained rats; conditions: even at 20× of the full active dose of LSD; cited from earlier work

CCN(CC)C(=O)[C@H]1C=C2c3cccc4[nH]cc(c34)C[C@H]2N(C)C1 [iso-LSD]
psychoactivity in humans [1]: inactive up to several milligrams

CCN(C=C(F)F)C(=O)[C@@H]1C=C2c3cccc4[nH]cc(c34)C[C@H]2N(C)C1 [Compound 2m, 9,10-Didehydro-N-(2,2-difluoroethenyl)-N-ethyl-6-methylergoline-8R-carboxamide]
chemical stability, basic conditions ([2]; hydrolyzed sample stored at ambient temperature overnight): remained intact
chemical stability, acidic conditions ([2]; hydrolyzed sample with excess tartaric acid, stored for 24h): the same product distribution as after initial hydrolysis of the reaction

CCN(CC)C(=O)[C@@H]1C=C2c3cccc4[nH]cc(c34)C[C@H]2N(C)C1 [LSD, 9,10-Didehydro-N,N-diethyl-6-methylergoline-8R-carboxamide]
plasma half-life [3]: approximately 4 hours

C=CN(CC)C(=O)[C@@H]1C=C2c3cccc4[nH]cc(c34)C[C@H]2N(C)C1 [Compound 2l, 9,10-Didehydro-N-ethenyl-N-ethyl-6-methylergoline-8R-carboxamide]
time after which the majority of substance was metabolized [4]: 30 min
microsomal metabolism compared with LSD [4]: significantly faster metabolized than LSD
stability against basic or acidic HPLC MS conditions ([2]; 0.02% NH4OH in water or 0.05% TFA in water / acetonitrile): stability against these conditions

CCN(CC)C(=O)[C@@H]1C=C2c3cccc4[nH]cc(c34)C[C@H]2NC1 [6-Nor-LSD, 9,10-Didehydro-N,N-diethylergoline-8R-carboxamide]
binding to 5-HT2A in more recent binding assays ([5]; Luethi et al., 2019): high-potency binding to 5-HT2A
loss of 5-HT2A binding affinity on N6-demethylation of LSD ([5]; relative to LSD (Hoffmann, 1987)): 30 factor
ability to substitute in LSD-trained rats [6]: loss of its 5-HT2A binding affinity (factor 30) and the ability to substitute in LSD-trained rats

C#CCN(CC)C(=O)[C@@H]1C=C2c3cccc4[nH]cc(c34)C[C@H]2N(CC(=C)F)C1 [Compound 16b, 9,10-Didehydro-N-ethyl-N-propyn-3-yl-6-(2-fluoro-1-propen-3-yl)ergoline-8R-carboxamide]
microsomal metabolism compared with LSD [4]: significantly faster metabolized than LSD

C#CCN(CC)C(=O)[C@@H]1C=C2c3cccc4[nH]cc(c34)C[C@H]2N(CCF)C1 [Compound 16a, 9,10-Didehydro-N-ethyl-N-propyn-3-yl-6-(2-fluoroethyl)ergoline-8R-carboxamide]
microsomal metabolism compared with LSD [4]: significantly faster metabolized than LSD

C=C(F)CN1C[C@H](C(=O)N(CC)CC)C=C2c3cccc4[nH]cc(c34)C[C@H]21 [Compound 12c, 9,10-Didehydro-N,N-diethyl-6-(2-fluoro-1-propen-3-yl)ergoline-8R-carboxamide]
microsomal metabolism compared with LSD [4]: significantly faster metabolized than LSD
